Experimental findings from patent US8476265B2, “Compounds-801” (AstraZeneca AB, priority 2010, dated 2013) are described below.

The target in one assay is T1, Adrenergic β2 (Homo sapiens, UniProt P07550).
T1 construct: Adherent H292 cells are removed from tissue culture flasks by treatment with Accutase™ cell detachment solution; endogenous in cells; host or cells: H292 cells
The assay can be described thus: Adrenergic β2 mediated cAMP production in H292 cells (AlphaScreen), concentration response. The class given is cell-based. The note with it: for EC50: 60 min, 300 μM rolipram, read-out: β2 pEC50 (converted); for β2 Intrinsic Activity: fraction relative to the maximum activity determined for formoterol. The procedure:
Assay for Adrenergic 132 Mediated cAMP Production
H292 cells are grown in 225 cm2 flasks incubator at 37° C., 5% CO2 in RPMI medium containing 10% (v/v) FBS (foetal bovine serum) and 2 mM L-glutamine.
Adherent H292 cells re removed from tissue culture flasks by treatment with Accutase™ cell detachment solution for 15 minutes. Flasks are incubated for 15 minutes in a humidified incubator at 37° C., 5% CO2. Detached cells are re-suspended in RPMI media (containing 10% (v/v) FBS and 2 mM L-glutamine) at 0.1×10^6 cells per mL. 10000 cells in 100 μl, are added to each well of a tissue-culture-treated 96-well plate and the cells incubated overnight in a humidified incubator at 37° C., 5% CO2. The culture media is removed and cells are washed twice with 100 μL assay buffer and replaced with 50 μl assay buffer (HBSS solution containing 10 mM HEPES pH7.4 and 5 mM glucose). Cells are rested at room temperature for 20 minutes after which time 25 μl of rolipram (1.2 mM made up in assay buffer containing 2.4% (v/v) dimethylsulphoxide) is added. Cells are incubated with rolipram for 10 minutes after which time test compounds are added and the cells are incubated for 60 minutes at room temperature. The final rolipram concentration in the assay is 300 μM and final vehicle concentration is 1% (v/v) dimethylsulphoxide. The reaction is stopped by removing supernatants, washing once with 100 μL assay buffer and replacing with 50 μL lysis buffer. The cell monolayer is frozen at −80° C. for 30 minutes (or overnight).
AlphaScreen™ cAMP detection
The concentration of cAMP (cyclic adenosine monophosphate) in the cell lysate is determined using AlphaScreen™ methodology. The frozen cell plate is thawed for 20 minutes on a plate shaker then 10 μL of the cell lysate is transferred to a 96-well white plate. 40 μL of mixed AlphaScreen™ detection beads pre-incubated with biotinylated cAMP, is added to each well and the plate incubated at room temperature for 3 hours in the dark. The AlphaScreen™ signal is measured using an EnVision spectrophotometer (Perkin-Elmer Inc.) with the recommended manufacturer's settings. cAMP concentrations are determined by reference to a calibration curve determined in the same experiment using standard cAMP concentrations. Concentration response curves for agonists are constructed and data is fitted to a four parameter logistic equation to determine both the pEC50 and Intrinsic Activity. Intrinsic Activity is expressed as a fraction relative to the maximum activity determined for formoterol in each experiment.

Assay [1] deals with T2, human muscarinic acetylcholine M3 receptor (Homo sapiens, UniProt P20309).
T2 construct: expressed in transfected cells; host or cells: CHO-K1 (Chinese Hamster Ovary) cell membranes
T2 sequence (P20309 whole entry): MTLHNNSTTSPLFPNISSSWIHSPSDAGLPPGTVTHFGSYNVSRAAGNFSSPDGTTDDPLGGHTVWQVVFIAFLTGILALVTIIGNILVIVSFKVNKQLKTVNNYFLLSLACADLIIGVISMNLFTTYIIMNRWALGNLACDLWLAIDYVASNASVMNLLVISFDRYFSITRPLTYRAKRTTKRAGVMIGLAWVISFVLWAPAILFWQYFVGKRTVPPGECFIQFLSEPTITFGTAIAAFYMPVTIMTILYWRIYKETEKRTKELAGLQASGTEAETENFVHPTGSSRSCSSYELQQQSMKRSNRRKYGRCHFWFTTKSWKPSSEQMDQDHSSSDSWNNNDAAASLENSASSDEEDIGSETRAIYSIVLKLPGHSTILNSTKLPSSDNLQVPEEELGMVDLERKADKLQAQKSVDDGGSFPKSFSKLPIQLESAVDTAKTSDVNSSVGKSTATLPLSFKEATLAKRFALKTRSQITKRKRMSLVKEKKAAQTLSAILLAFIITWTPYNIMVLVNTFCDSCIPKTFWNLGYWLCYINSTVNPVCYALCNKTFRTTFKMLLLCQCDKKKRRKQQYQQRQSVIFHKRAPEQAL
The assay can be described thus: Muscarinic 3 receptor binding assay ([3H]NMS competition, SPA), pIC50. To be noted: [3H]NMS 0.1 nM, CHO-K1 cell membranes expressing human M3 receptor. How it is done:
Muscarinic 3 Receptor Binding Assay
The affinity (pIC50) of compounds binding to the M3 receptor is determined by competition binding of [^3H]N-methyl scopolamine (NMS) to CHO-K1 (Chinese Hamster Ovary) cell membranes expressing the human muscarinic acetylcholine M3 receptor (M3-ACh) in a scintillation proximity assay (SPA) format.
SPA beads are precoated with membranes and then incubated at 2 mg of beads per well with serial dilutions of compounds of the invention, [^3H]NMS at 0.1 nM, quarter Kd (experimentally determined dissociation constant) and assay buffer (20 mM HEPES pH 7.4 containing 5 mM MgCl2 and 0.1% (w/v) bovine serum albumin). The assay is conducted in a final volume of 200 μL, in the presence of 1% (v/v) dimethyl sulphoxide (DMSO). Total binding of [^3H]NMS is determined in the absence of competing compound and non-specific binding of [^3H]NMS is determined in the presence of 1 μM atropine. The plates are incubated for 16 hours at room temperature and then read on Wallac Microbeta™ using a normalised ^3H protocol. The pIC50, defined as the negative logarithm of the molar concentration of compound required for 50% reduction in specific [^3H]-NMS binding, is determined.

T1 sequence (P07550 whole entry): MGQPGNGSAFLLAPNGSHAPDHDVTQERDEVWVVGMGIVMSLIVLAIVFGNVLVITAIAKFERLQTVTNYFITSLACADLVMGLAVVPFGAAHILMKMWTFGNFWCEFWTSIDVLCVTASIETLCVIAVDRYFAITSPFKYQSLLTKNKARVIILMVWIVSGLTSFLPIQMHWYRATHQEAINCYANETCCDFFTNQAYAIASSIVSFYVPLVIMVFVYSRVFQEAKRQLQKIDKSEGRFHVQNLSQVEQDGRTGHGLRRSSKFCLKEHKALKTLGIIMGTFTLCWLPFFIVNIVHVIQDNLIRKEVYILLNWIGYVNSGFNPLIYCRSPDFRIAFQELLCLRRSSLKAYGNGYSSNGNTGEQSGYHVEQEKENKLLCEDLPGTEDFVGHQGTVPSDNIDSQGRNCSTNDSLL

As for `CC(C)c1nc(C(=O)N2CCOC3(CCN(CCc4cccc(CCOCCC(=O)N(CCNCCc5ccc(O)c6c5OCC(=O)N6)C5CCCCC5)c4)CC3)C2)cs1` [Example 36, N-Cyclohexyl-N-(2-(2-(5-hydroxy-3-oxo-3,4-dihydro-2H-benzo[b][1,4]oxazin-8-yl)ethylamino)ethyl)-3-(3-(2-(4-(2-isopropylthiazole-4-carbonyl)-1-oxa-4,9-diazaspiro[5.5]undecan-9-yl)ethyl)phenethoxy)propanamide ditrifluoroacetate], on Adrenergic β2, the EC50 was 12.6 nM and the “β2 Intrinsic Activity” value was 1.0. The same compound had an IC50 in assay [1] of 2.51 nM.

For `CCCCN(CCNCCc1ccc(O)c2c1OCC(=O)N2)C(=O)CCOCCc1cc(C)cc(CN2CCC3(CC2)CN(C(=O)c2csc(C(C)C)n2)CCO3)c1` [Example 65, N-Butyl-N-(2-(2-(5-hydroxy-3-oxo-3,4-dihydro-2H-benzo[b][1,4]oxazin-8-yl)ethylamino)ethyl)-3-(3-((4-(2-isopropylthiazole-4-carbonyl)-1-oxa-4,9-diazaspiro[5.5]undecan-9-yl)methyl)-5-methylphenethoxy)propanamide ditrifluoroacetate], at Adrenergic β2, the EC50 is 63.1 nM and the “β2 Intrinsic Activity” value is recorded as 1.0. In addition, the half-maximal inhibitory concentration (IC50) in assay [1] is 0.501 nM.

Turning to `CCCC[C@@H](C)N(CCNCCc1ccc(O)c2c1OCC(=O)N2)C(=O)CCOCCc1ccc(CCN2CCC3(CC2)CN(C(=O)c2csc(C)n2)CCO3)cc1` [Example 6, (R)—N-(Hexan-2-yl)-N-(2-(2-(5-hydroxy-3-oxo-3,4-dihydro-2H-benzo[b][1,4]oxazin-8-yl)ethylamino)ethyl)-3-(4-(2-(4-(2-methylthiazole-4-carbonyl)-1-oxa-4,9-diazaspiro[5.5]undecan-9-yl)ethyl)phenethoxy)propanamide ditrifluoroacetate], on Adrenergic β2, the EC50 is 31.6 nM and the “β2 Intrinsic Activity” value came to 1.0. Moreover, the IC50 in assay [1] is 0.1 nM.

Turning to `CCCC[C@@H](C)N(CCNCCc1ccc(O)c2c1OCC(=O)N2)C(=O)CCOCCc1cccc(CCN2CCC3(CC2)CN(C(=O)c2csc(C)n2)CCO3)c1` [Example 38, (R)—N-(Hexan-2-yl)-N-(2-(2-(5-hydroxy-3-oxo-3,4-dihydro-2H-benzo[b][1,4]oxazin-8-yl)ethylamino)ethyl)-3-(3-(2-(4-(2-methylthiazole-4-carbonyl)-1-oxa-4,9-diazaspiro[5.5]undecan-9-yl)ethyl)phenethoxy)propanamide ditrifluoroacetate], on Adrenergic β2, the EC50 is 15.8 nM and the “β2 Intrinsic Activity” value is 1.0. The compound further had an IC50 in assay [1] of 0.398 nM.

For the compound `CC(C)c1nc(C(=O)N2CCOC3(CCN(Cc4cccc(CCCCOCCC(=O)N(CCNCCc5ccc(O)c6c5OCC(=O)N6)C5CCCCC5)c4)CC3)C2)cs1` [Example 58, N-Cyclohexyl-N-(2-(2-(5-hydroxy-3-oxo-3,4-dihydro-2H-benzo[b][1,4]oxazin-8-yl)ethylamino)ethyl)-3-(4-(3-((4-(2-Isopropylthiazole-4-carbonyl)-1-oxa-4,9-diazaspiro[5.5]undecan-9-yl)methyl)phenyl)butoxy)propanamide ditrifluoroacetate], on Adrenergic β2, the EC50 was 100 nM and the “β2 Intrinsic Activity” value is 0.9. Moreover, in assay [1], the 50% inhibitory concentration (IC50) was 0.0631 nM.

For the compound `CCN(CCNCCc1ccc(O)c2c1OCC(=O)N2)C(=O)CCOCCc1cccc(CN2CCC3(CC2)CN(C(=O)c2csc(CC(C)C)n2)CCO3)c1F` [Example 69, N-Ethyl-3-(2-fluoro-3-((4-(2-isobutylthiazole-4-carbonyl)-1-oxa-4,9-diazaspiro[5.5]undecan-9-yl)methyl)phenethoxy)-N-(2-(2-(5-hydroxy-3-oxo-3,4-dihydro-2H-benzo[b][1,4]oxazin-8-yl)ethylamino)ethyl)propanamide ditrifluoroacetate], on Adrenergic β2, the EC50 is 31.6 nM and the “β2 Intrinsic Activity” value came out at 0.8. The IC50 in assay [1] was 0.251 nM.

On to `CC(C)c1nc(C(=O)N2CCOC3(CCN(Cc4cccc(CCOCCC(=O)N(C)CCNCCc5ccc(O)c6[nH]c(=O)sc56)c4F)CC3)C2)cs1` [Example 13, 3-(2-Fluoro-3-((4-(2-isopropylthiazole-4-carbonyl)-1-oxa-4,9-diazaspiro[5.5]undecan-9-yl)methyl)phenethoxy)-N-(2-(2-(4-hydroxy-2-oxo-2,3-dihydrobenzo[d]thiazol-7-yl)ethylamino)ethyl)-N-methylpropanamide ditrifluoroacetate], for which, at Adrenergic β2, the EC50 is 25.1 nM and the “β2 Intrinsic Activity” value was determined as 0.8. Besides, the IC50 in assay [1] is 0.631 nM.

As for `CC(C)c1nc(C(=O)N2CCOC3(CCN(Cc4cccc(CCOCCC(=O)N(CCNCCc5ccc(O)c6c5OCC(=O)N6)C(C)C)c4F)CC3)C2)cs1` [Example 16, 3-(2-Fluoro-3-((4-(2-isopropylthiazole-4-carbonyl)-1-oxa-4,9-diazaspiro[5.5]undecan-9-yl)methyl)phenethoxy)-N-(2-(2-(5-hydroxy-3-oxo-3,4-dihydro-2H-benzo[b][1,4]oxazin-8-yl)ethylamino)ethyl)-N-isopropylpropanamide ditrifluoroacetate], on Adrenergic β2, the EC50 was 200 nM and the “β2 Intrinsic Activity” value was 0.8. Moreover, in assay [1], the 50% inhibitory concentration (IC50) was 0.251 nM.

In the case of `CC(C)c1nc(C(=O)N2CCOC3(CCN(Cc4cccc(COCCOCCC(=O)N(CCNCCc5ccc(O)c6c5OCC(=O)N6)C5CCCCC5)c4)CC3)C2)cs1` [Example 67, N-Cyclohexyl-N-(2-(2-(5-hydroxy-3-oxo-3,4-dihydro-2H-benzo[b][1,4]oxazin-8-yl)ethylamino)ethyl)-3-(2-(3-((4-(2-isopropylthiazole-4-carbonyl)-1-oxa-4,9-diazaspiro[5.5]undecan-9-yl)methyl)benzyloxy)ethoxy)propanamide ditrifluoroacetate], on Adrenergic β2, the EC50 was 31.6 nM and the “β2 Intrinsic Activity” value came out at 0.8. In addition, in assay [1], the IC50 is 0.251 nM.

For `CC(C)c1nc(C(=O)N2CCOC3(CCN(CCOc4ccc(CCOCCC(=O)N(CCNCCc5ccc(O)c6c5OCC(=O)N6)C5CCCCC5)cc4)CC3)C2)cs1` [Example 51, N-Cyclohexyl-N-(2-(2-(5-hydroxy-3-oxo-3,4-dihydro-2H-benzo[b][1,4]oxazin-8-yl)ethylamino)ethyl)-3-(4-(2-(4-(2-isopropylthiazole-4-carbonyl)-1-oxa-4,9-diazaspiro[5.5]undecan-9-yl)ethoxy)phenethoxy)propanamide ditrifluoroacetate], on Adrenergic β2, the EC50 was 63.1 nM and the “β2 Intrinsic Activity” value is on record as 1.1. In assay [1], this compound had an IC50 of 3.98 nM.

As to `CCc1nc(C(=O)N2CCOC3(CCN(Cc4cccc(CCOCCC(=O)N(CCNCCc5ccc(O)c6c5OCC(=O)N6)[C@H](C)CC)c4Cl)CC3)C2)cs1` [Example 31, (R)—N-sec-Butyl-3-(2-chloro-3-((4-(2-ethylthiazole-4-carbonyl)-1-oxa-4,9-diazaspiro[5.5]undecan-9-yl)methyl)phenethoxy)-N-(2-(2-(5-hydroxy-3-oxo-3,4-dihydro-2H-benzo[b][1,4]oxazin-8-yl)ethylamino)ethyl)propanamide ditrifluoroacetate], on Adrenergic β2, the EC50 is 20 nM and the “β2 Intrinsic Activity” value is 1.0. Also, in assay [1], the IC50 is 0.398 nM.
